# PubChem BioAssay (NCI)
#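 The compound was tested at five concentrations on cells cultured in 96-well plates, with a 48-hour exposure period. GI50 is the concentration that inhibits growth by half. TGI marks complete inhibition of growth.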
# How the values were obtained:
# Assay in all cases: NCI anticancer screen, dose series, 48 h
# SW-620 colon = test system: SW-620 colon
# SK-MEL-2 melanoma = test system: SK-MEL-2 melanoma
# PC-3 prostate = test system: PC-3 prostate
# U251 CNS = test system: U251 CNS
# KM12 colon = test system: KM12 colon
# SK-OV-3 ovarian = test system: SK-OV-3 ovarian
# K-562 leukemia = test system: K-562 leukemia
# MDA-MB-435 = test system: MDA-MB-435
# OVCAR-5 ovarian = test system: OVCAR-5 ovarian
# HCC-2998 colon = test system: HCC-2998 colon
SMILES,TGI (SW-620 colon) [µM],TGI (SK-MEL-2 melanoma) [µM],TGI (PC-3 prostate) [µM],TGI (U251 CNS) [µM],TGI (KM12 colon) [µM],TGI (SK-OV-3 ovarian) [µM],TGI (K-562 leukemia) [µM],TGI (MDA-MB-435) [µM],TGI (OVCAR-5 ovarian) [µM],TGI (HCC-2998 colon) [µM],GI50 (HCC-2998 colon) [µM],GI50 (K-562 leukemia) [µM],GI50 (SK-MEL-2 melanoma) [µM],GI50 (KM12 colon) [µM],GI50 (SK-OV-3 ovarian) [µM],GI50 (MDA-MB-435) [µM],GI50 (OVCAR-5 ovarian) [µM],GI50 (SW-620 colon) [µM],GI50 (PC-3 prostate) [µM],GI50 (U251 CNS) [µM]
COC(=O)C1=C(O)C(C(=O)OC)[C@]2(O)[C@H](C(=O)OC)[C@H]1C[C@@H](c1ccc([N+](=O)[O-])cc1)[C@H]2C(=O)OC (some centres not stated),58.4,46.6,51.9,28.6,> 100,> 100,> 100,> 100,65.9,–,–,–,–,–,–,–,–,–,–,–
NC1=NCC(CN2CCCC2)O1 (configuration not stated),> 100,> 100,> 100,> 100,> 100,> 100,> 100,> 100,> 100,> 100,–,–,–,–,–,–,–,–,–,–
O=C1CC(n2cccc2)c2c(Br)sc(Br)c21 (configuration not stated),41.3,29.1,33.9,28.4,22.8,35.2,64.8,29.3,32.5,28.7,–,–,–,–,–,–,–,–,–,–
O=[N+]([O-])c1cccnc1-n1cnc2ccccc21,> 100,> 100,> 100,> 100,> 100,> 100,> 100,> 100,> 100,> 100,–,–,–,–,–,–,–,–,–,–
O=C1C=CC(=O)c2c(Cl)ccc(O)c21,31.4,97.5,–,> 100,> 100,> 100,> 74,–,> 89.3,> 100,–,–,–,–,–,–,–,–,–,–
C=CC1CN2CCC1CC2C(O)c1ccnc2ccccc12 (configuration not stated),> 100,> 100,> 100,> 100,> 100,> 100,> 100,> 100,> 100,> 100,> 100,> 100,–,–,–,–,–,–,–,–
CC(=O)/C(=C\c1ccc(Cl)c(Cl)c1)C(=O)C(C)CN(C)C (configuration not stated),9.01,–,17,12.9,5.35,37.1,–,12.3,23.8,9.66,–,–,–,–,–,–,–,–,–,–
CO[C@]1(CN2CCN3CCCC[C@@H]3C2)/C=C/C[C@H](C)[C@@H](C)S(=O)(=O)NC(=O)c2ccc3c(c2)N(C[C@@H]2CC[C@H]21)C[C@@]1(CCCc2cc(Cl)ccc21)CO3,–,0.183,–,–,3.25,7.5,6.57,2.42,3.8,2.73,1.4,2.28,0.0454,1.73,2.67,1.05,1.93,–,–,–
Cc1nc(-c2cc3cc(Cl)ccc3oc2=O)cc2c1c(=O)oc1ccc(Cl)cc12,> 100,> 100,> 100,> 100,> 100,> 100,> 100,> 100,–,> 100,–,–,–,–,–,–,–,–,–,–
Cc1csc(NC(=NCCN2CCOCC2)Nc2nc(C)cs2)n1,> 100,> 100,–,> 100,> 100,> 100,> 100,–,> 100,> 100,–,–,–,–,–,–,–,–,–,–
CCC(CC(C)C)Nc1ccc(NC(CC)CC(C)C)cc1 (configuration not stated),30.1,27.4,16.3,26.6,30.2,–,37.8,40,29.1,36,19.3,10.7,12.9,15.6,–,18.2,15.6,15.6,4,13
CC(=O)Nc1cc(Nc2cc(=O)[nH]c(=O)[nH]2)ccc1C,> 100,–,> 100,> 100,> 100,–,> 100,> 100,> 100,> 100,–,–,–,–,–,–,–,–,–,–
O=C1c2ccccc2-c2[nH]c3cn[nH]c(=O)c3c21,> 100,> 100,> 100,> 100,> 100,> 100,> 100,> 100,> 100,–,–,–,–,–,–,–,–,–,–,–
COc1ccccc1CNCCCCCCCCCCCCN1C(=O)c2ccc3c4c(ccc(c24)C1=O)C(=O)N(CCCCCCCCCCCCNCc1ccccc1OC)C3=O,> 50,> 50,> 5,–,–,> 50,–,–,> 50,> 50,> 50,–,1.99,–,> 50,–,> 50,> 50,> 5,–
CC(=O)CC(=O)CCC(=O)O,> 100,> 100,–,> 100,> 100,> 100,> 100,–,> 100,> 100,–,–,–,–,–,–,–,–,–,–
Nc1ncnc2c1ncn2Cc1cccc(CCl)c1,29.9,31.9,35.5,32.5,33,–,> 100,44.6,32.1,–,–,–,–,–,–,–,–,–,–,–
CC(C)(C)OC(=O)n1cc(C2CN(O)C(=O)C23CCC(=O)N3Cc2ccccc2)c2ccccc21 (configuration not stated),> 100,35.7,> 100,> 100,> 100,66.5,> 100,> 100,> 100,–,–,–,–,–,–,–,–,–,–,–
O=C1c2ccccc2C(=O)N1c1nc(-c2ccc(Cl)cc2)cc(N2N=C(c3ccc(Br)cc3)CC2c2ccccc2)n1 (configuration not stated),–,> 42.2,> 27.5,5.99,> 63.9,> 46.1,> 100,2.62,–,0.966,–,–,–,–,–,–,–,–,–,–
O=C(NNCc1ccc(Cl)cc1)Nc1cccc2ccccc12,> 100,> 100,> 100,> 100,> 100,–,> 100,> 100,> 100,> 100,–,–,–,–,–,–,–,–,–,–
C/C(=N\Nc1nc2ccccc2[nH]1)c1cc2ccccc2cn1,1.65,–,–,0.863,1.88,12.7,> 100,1.1,2.5,3.46,–,–,–,–,–,–,–,–,–,–
CC1OC2OC3C(OCC(O)C3O)OC(=O)[C@]34CCC(C)(C)CC3C3=CCC5[C@@]6(C)C[C@H](O)[C@H](OC7OC(CO)C(O)C(O)C7OC7OCC(OC(=O)CC(C)(O)CC(=O)OC1C(OC1OC(CO)C(O)C(O)C1O)C2O)C(O)C7O)[C@@](C)(CO)C6CC[C@@]5(C)[C@]3(C)CC4 (some centres not stated),20.3,13.5,16.9,18.6,19.3,22.8,–,11.4,18.9,8.52,–,–,–,–,–,–,–,–,–,–
O=C(CC1Sc2ccccc2NC1=O)Nc1ccc(Cl)cc1 (configuration not stated),> 100,> 100,–,> 100,> 100,> 100,> 100,–,> 100,> 100,–,–,–,–,–,–,–,–,–,–
